The results in this text go back to ChEMBL document CHEMBL1201862, “PubChem BioAssay data set” (2004).

Calls of active or inactive are those of the source.

Experiment [1] has as its target T1, Eukaryotic translation initiation factor 4H (Homo sapiens, UniProt Q15056). As to the kind of experiment: human eIF4H binding inhibitors, primary screen, translation initiation inhibitor project, biochemical, uHTS, fluorescence polarization (AID 2012).
In experiment [2] the target is T2, Polyadenylate-binding protein 1 (Homo sapiens, UniProt P11940). As to the kind of experiment: PABP poly(A) RNA binding inhibitors, primary screen, biochemical, fluorescence polarization, uHTS (AID 2014).
T2 sequence (P11940 whole entry): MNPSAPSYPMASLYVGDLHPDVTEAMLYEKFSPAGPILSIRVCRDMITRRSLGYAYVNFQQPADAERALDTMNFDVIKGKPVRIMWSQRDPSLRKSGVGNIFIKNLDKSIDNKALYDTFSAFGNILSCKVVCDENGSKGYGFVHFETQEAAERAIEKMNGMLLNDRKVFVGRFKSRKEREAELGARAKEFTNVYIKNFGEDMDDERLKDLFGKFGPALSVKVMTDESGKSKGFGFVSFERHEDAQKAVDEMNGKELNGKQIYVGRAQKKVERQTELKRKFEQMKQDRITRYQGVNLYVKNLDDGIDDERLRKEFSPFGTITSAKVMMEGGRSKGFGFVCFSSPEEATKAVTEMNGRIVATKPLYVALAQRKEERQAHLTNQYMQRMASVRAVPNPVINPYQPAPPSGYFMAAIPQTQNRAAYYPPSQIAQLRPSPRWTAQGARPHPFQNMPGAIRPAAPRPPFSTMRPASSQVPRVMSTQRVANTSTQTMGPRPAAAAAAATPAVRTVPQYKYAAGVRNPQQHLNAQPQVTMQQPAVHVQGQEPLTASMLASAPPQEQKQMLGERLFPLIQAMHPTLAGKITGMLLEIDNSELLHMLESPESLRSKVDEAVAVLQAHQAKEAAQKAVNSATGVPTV
In experiment [3] the target is T1, Eukaryotic translation initiation factor 4H. As to the kind of experiment: eIF4H inhibition in translation initiation, SAR follow-up (AID 435011). In kind it is functional.
Experiment [4] deals with T2, Polyadenylate-binding protein 1. As to the kind of experiment: PABP inhibition in translation initiation, SAR follow-up (AID 435018). Type of experiment: functional.
A further experiment relates to HeLa. As to the kind of experiment: HeLa cell cytotoxicity, dose response, cytotoxicity control, 24 h, cherry-picked samples (AID 504726).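 Also: potency for cytotoxicity as loss of luminescence signal.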 To be noted: Homo sapiens. Type of experiment: functional, cell-based.
The target in another experiment is ORF 73 (Human herpesvirus 8, UniProt O40947). As to the kind of experiment: inhibitors of C-LANA binding to LBS DNA, dose response, biochemical, fluorescence polarization, cherry-picked samples (AID 504725).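 Also: fluorescence polarization of a labeled DNA duplex reporting LANA DNA binding; potency is for inhibitors that block LANA binding to the DNA.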 Further details: species or system Human gammaherpesvirus 8.
Sequence of ORF 73 (O40947 whole entry): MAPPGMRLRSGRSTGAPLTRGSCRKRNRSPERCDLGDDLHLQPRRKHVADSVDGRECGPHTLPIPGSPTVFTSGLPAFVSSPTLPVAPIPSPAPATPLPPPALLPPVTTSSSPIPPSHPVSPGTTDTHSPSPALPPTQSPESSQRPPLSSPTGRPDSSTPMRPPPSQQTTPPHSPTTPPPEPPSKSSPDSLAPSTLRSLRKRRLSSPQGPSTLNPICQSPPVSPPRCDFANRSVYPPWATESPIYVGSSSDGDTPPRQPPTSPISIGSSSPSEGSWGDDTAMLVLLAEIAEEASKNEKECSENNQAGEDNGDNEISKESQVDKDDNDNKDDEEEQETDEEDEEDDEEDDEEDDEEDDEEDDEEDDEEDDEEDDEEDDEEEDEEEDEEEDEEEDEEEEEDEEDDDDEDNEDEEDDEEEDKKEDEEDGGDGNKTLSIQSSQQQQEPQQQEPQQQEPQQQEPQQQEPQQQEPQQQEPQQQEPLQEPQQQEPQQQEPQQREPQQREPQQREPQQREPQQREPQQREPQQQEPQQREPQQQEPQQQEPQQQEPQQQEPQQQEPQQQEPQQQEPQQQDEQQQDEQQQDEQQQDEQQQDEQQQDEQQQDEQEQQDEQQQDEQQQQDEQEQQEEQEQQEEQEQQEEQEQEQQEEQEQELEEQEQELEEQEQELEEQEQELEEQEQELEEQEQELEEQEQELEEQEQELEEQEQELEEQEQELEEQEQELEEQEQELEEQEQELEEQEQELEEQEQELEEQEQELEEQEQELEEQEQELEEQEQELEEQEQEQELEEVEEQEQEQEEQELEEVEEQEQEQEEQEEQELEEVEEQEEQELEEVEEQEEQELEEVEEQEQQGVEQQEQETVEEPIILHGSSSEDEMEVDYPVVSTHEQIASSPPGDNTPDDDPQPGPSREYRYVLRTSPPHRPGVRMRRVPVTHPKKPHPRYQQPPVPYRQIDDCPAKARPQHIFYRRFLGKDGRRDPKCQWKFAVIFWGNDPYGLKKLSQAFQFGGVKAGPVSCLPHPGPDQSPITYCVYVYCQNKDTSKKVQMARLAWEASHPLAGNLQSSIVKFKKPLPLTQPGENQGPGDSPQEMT
The next experiment addresses Nonstructural protein 1 (Influenza A virus, UniProt Q194T2). Type of experiment: functional, Influenza A virus (A/California/07/2009(H1N1)).
Experiment [5] can be described thus: HeLa cell cytotoxicity, dose response, cytotoxicity control for MgcRacGAP inhibitor project (AID 624300). Type of experiment: functional.
In experiment [6] the target is T3, Rac GTPase-activating protein 1 (Homo sapiens, UniProt Q9H0H5).
T3 sequence (Q9H0H5 whole entry): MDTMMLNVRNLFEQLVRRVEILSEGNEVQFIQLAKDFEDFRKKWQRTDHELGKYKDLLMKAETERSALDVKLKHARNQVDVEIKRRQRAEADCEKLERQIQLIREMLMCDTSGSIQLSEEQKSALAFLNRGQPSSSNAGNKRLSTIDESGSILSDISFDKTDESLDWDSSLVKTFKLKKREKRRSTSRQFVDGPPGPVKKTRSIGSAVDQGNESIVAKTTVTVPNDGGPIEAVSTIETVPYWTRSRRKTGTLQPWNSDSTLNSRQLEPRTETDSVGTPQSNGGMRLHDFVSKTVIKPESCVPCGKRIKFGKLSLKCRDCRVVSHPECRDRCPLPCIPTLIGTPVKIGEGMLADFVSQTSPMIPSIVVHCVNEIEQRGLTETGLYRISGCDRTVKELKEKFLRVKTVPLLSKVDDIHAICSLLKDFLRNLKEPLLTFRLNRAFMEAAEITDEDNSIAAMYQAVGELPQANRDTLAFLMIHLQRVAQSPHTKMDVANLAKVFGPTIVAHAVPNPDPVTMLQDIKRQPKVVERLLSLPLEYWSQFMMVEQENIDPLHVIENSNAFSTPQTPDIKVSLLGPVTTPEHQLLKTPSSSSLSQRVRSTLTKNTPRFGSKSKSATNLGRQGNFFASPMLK
As to the kind of experiment: MgcRacGAP GTPase-activating activity inhibitors, confirmation, biochemical, ADP Hunter fluorescence, primary and confirmatory (AID 624330). Type of experiment: functional.

A further experiment concerns the target Protein S100-A4 (Homo sapiens, UniProt P26447). As to the kind of experiment: S100A4-myosin IIA binding inhibitor potency, dose response, biochemical, fluorescence polarization, cherry-picked hits (AID 687001). Type of experiment: functional.
In the next experiment the target is Paired box protein Pax-8 (Homo sapiens, UniProt Q06710). As to the kind of experiment: inhibitors of PAX8-driven TPO luciferase reporter, dose response, RMG-I cells, cherry-pick (AID 687027).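 Also: luciferase reporter driven by Pax8 target thyroperoxidase promoter measured by SteadyGlo luminescence.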 Type of experiment: functional, cell-based.
Sequence of Paired box protein Pax-8 (Q06710 whole entry): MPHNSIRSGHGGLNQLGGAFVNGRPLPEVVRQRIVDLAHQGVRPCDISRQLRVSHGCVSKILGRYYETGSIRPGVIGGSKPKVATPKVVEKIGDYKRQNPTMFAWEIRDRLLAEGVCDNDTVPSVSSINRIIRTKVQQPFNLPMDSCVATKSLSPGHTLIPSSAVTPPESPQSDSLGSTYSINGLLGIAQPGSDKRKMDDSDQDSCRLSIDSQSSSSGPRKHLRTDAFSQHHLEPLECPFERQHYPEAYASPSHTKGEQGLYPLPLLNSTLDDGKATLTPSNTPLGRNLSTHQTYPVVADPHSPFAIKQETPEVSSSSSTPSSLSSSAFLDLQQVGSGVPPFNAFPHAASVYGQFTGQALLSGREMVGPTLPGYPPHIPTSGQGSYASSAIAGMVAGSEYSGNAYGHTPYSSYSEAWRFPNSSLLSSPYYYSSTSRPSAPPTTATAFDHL
The nature of experiment [7]: cytotoxicity in BJeHLT fibroblasts, dose response, counter-screen for Ras selective lethality project, BJeHLT cells, dry powder (AID 493052). Type of experiment: functional, cell-based. To be noted: Homo sapiens.
Experiment [8] in a line: viability loss in HRASV12 DRD fibroblasts, dose response, cell-based, DRD BJ fibroblasts, dry powder (AID 493049). Type of experiment: functional.
Experiment [9] in a line: viability loss in BJeLR (HRASV12) cells, primary screen, Ras selective lethality project, cell-based, Alamar Blue, dry powder (AID 493045). Type of experiment: functional.
A short description of experiment [10]: cytotoxicity in BJeH fibroblasts, dose response, counter-screen for Ras selective lethality project, BJeH cells, dry powder (AID 493054). Type of experiment: functional, cell-based.
Experiment [11] deals with T4, Kappa-type opioid receptor (Homo sapiens, UniProt P41145). In kind it is functional.
T4 sequence (P41145 whole entry): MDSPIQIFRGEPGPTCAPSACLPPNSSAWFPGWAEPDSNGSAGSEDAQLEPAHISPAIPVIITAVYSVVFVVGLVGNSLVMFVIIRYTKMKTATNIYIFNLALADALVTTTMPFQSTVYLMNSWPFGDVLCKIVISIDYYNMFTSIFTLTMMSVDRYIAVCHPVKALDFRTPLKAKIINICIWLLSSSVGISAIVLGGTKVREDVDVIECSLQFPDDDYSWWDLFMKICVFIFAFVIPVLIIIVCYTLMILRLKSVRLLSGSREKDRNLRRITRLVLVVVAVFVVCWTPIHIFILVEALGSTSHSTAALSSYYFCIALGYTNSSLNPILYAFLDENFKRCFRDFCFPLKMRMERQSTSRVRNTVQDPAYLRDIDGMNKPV
The target in experiment [12] is T5, Beta-galactosidase (Escherichia coli, UniProt Q8VNN2). Type of experiment: functional.
T5 sequence (Q8VNN2 whole entry): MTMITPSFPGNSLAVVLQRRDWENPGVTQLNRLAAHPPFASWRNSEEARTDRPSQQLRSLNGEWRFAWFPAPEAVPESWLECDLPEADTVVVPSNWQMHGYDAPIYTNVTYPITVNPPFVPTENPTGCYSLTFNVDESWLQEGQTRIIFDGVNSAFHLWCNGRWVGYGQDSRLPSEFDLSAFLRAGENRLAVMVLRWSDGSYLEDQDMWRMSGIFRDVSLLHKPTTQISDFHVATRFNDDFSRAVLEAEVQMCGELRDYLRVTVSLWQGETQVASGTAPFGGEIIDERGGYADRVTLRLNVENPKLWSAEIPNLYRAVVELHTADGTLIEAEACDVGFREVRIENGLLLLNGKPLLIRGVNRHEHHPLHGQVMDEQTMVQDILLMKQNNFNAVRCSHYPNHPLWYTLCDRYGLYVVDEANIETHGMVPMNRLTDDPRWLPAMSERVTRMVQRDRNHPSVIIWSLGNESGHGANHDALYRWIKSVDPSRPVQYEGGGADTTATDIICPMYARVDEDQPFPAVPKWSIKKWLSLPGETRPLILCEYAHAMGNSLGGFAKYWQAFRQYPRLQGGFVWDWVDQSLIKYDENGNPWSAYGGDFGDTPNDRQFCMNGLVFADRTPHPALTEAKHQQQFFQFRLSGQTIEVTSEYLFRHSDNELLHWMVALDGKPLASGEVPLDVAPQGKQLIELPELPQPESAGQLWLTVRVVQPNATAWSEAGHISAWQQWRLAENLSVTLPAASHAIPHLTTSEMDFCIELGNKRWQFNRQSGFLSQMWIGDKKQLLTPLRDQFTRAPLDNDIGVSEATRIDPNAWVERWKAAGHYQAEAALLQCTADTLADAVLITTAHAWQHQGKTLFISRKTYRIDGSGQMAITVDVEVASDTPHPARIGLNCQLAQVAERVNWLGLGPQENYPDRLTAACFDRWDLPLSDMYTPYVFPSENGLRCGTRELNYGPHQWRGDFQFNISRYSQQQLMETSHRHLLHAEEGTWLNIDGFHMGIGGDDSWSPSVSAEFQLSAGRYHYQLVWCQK
The target in experiment [13] is T4, Kappa-type opioid receptor. In kind it is functional. This is another data set of the same source.
The target in experiment [14] is G-protein coupled receptor 35 (Homo sapiens, UniProt Q9HC97). As to the kind of experiment: GPR35 antagonists blocking zaprinast-driven arrestin recruitment, primary screen, imaging, U2OS, beta-arrestin-GFP, zaprinast agonist (AID 2058).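 Also: antagonist potency meaning inhibition of agonist-induced arrestin redistribution.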 In kind it is functional.
Sequence of G-protein coupled receptor 35 (Q9HC97 whole entry): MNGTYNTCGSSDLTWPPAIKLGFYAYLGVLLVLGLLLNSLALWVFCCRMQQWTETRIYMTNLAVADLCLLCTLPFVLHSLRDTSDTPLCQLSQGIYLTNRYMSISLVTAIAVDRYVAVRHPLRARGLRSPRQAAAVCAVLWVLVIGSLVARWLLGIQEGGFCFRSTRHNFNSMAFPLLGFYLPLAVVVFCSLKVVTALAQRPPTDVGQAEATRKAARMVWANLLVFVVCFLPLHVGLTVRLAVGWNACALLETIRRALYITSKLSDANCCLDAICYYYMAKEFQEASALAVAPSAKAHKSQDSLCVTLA
For experiment [15], the target named is T6, Heat shock factor protein 1 (Mus musculus, UniProt P38532).
T6 sequence (P38532 whole entry): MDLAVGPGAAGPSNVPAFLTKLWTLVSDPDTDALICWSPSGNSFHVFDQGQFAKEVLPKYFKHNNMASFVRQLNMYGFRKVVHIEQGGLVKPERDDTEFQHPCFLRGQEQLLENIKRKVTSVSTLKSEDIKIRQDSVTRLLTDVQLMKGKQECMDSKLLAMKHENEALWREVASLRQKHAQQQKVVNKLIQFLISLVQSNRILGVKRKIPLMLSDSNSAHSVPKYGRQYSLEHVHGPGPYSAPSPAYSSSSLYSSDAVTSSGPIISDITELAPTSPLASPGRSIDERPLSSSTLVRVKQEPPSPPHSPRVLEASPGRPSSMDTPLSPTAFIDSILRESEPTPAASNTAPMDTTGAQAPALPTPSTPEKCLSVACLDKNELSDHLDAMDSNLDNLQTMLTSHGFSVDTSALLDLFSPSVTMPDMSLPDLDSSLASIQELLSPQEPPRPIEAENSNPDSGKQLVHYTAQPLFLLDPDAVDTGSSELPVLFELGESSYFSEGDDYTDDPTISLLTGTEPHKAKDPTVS
As to the kind of experiment: inhibition of MG132-induced HSE-luciferase signal, confirmation, cell-based, NIH3T3, luminescence, dose retest (AID 2382).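 Also: NIH3T3 fibroblasts with HSF1-driven luciferase reporter stressed by proteasome inhibitor MG132; luminescence from HSF1-driven luciferase expression after 8 hours of MG132 stress.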 Type of experiment: functional.

The next experiment relates to Saccharomyces cerevisiae. As to the kind of experiment: NALP1 inhibitor project selectivity study, Caspase-1/ASC signal blockade IC50 in S. cerevisiae (AID 488863). Type of experiment: functional, organism-based.
For experiment [16], the target named is NACHT, LRR and PYD domains-containing protein 1 (Homo sapiens, UniProt Q9C000). As to the kind of experiment: NALP1 inhibitors in yeast, dose response, luminescent (AID 488860). Type of experiment: functional.
Experiment [17] has as its target T5, Beta-galactosidase. As to the kind of experiment: beta-galactosidase enzyme inhibitors and activators, dose response, artefact control for CCR6 antagonist project, biochemical, E. coli enzyme, set 3 (AID 504712). Type of experiment: functional.
The subject of another experiment is CHO. As to the kind of experiment: cytotoxicity in TLR9-MyD88 CHO cells, dose response, cytotoxicity control for TLR9-MyD88 binding inhibitor project, cell-based, luminescence (AID 588339).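 Also: CHO cells stably coexpressing TLR9 and MyD88 fusions from primary screen; compound exposure lasted 48 hours before viability readout.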 In kind it is functional, hamster. Conditions: Cricetulus griseus.
Experiment [18] addresses T7, Replicative DNA helicase DnaB (Mycobacterium tuberculosis, UniProt P9WMR3).
T7 sequence (P9WMR3 whole entry): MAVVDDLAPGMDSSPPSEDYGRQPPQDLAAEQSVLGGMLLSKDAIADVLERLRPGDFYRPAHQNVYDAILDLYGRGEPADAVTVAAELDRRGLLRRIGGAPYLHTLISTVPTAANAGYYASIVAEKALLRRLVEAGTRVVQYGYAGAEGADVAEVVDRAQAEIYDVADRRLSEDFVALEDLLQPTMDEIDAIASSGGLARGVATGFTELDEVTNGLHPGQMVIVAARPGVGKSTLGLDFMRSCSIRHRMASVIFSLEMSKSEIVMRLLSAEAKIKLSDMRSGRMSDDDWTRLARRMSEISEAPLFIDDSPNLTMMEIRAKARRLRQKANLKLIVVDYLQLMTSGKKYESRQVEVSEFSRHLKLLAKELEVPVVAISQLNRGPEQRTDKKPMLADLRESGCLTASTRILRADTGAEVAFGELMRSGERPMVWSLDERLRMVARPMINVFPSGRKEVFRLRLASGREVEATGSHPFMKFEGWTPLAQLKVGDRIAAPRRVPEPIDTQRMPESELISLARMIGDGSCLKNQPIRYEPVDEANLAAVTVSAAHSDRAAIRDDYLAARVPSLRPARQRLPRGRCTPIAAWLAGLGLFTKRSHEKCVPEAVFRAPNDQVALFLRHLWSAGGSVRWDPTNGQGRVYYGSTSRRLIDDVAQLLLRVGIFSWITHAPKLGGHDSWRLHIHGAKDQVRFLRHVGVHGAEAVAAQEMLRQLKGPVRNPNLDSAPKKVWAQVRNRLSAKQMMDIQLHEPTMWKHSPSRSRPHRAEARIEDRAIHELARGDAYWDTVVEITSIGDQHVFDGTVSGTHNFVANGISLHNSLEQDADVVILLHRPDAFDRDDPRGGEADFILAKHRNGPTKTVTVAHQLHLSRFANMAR
As to the kind of experiment: DnaB intein splicing inhibitors, dose response, biochemical, cell-free fluorescence (AID 449749). In kind it is functional.

The target of another experiment is T8, Protein RecA (Mycobacterium tuberculosis, UniProt P9WHJ3).
T8 sequence (P9WHJ3 whole entry): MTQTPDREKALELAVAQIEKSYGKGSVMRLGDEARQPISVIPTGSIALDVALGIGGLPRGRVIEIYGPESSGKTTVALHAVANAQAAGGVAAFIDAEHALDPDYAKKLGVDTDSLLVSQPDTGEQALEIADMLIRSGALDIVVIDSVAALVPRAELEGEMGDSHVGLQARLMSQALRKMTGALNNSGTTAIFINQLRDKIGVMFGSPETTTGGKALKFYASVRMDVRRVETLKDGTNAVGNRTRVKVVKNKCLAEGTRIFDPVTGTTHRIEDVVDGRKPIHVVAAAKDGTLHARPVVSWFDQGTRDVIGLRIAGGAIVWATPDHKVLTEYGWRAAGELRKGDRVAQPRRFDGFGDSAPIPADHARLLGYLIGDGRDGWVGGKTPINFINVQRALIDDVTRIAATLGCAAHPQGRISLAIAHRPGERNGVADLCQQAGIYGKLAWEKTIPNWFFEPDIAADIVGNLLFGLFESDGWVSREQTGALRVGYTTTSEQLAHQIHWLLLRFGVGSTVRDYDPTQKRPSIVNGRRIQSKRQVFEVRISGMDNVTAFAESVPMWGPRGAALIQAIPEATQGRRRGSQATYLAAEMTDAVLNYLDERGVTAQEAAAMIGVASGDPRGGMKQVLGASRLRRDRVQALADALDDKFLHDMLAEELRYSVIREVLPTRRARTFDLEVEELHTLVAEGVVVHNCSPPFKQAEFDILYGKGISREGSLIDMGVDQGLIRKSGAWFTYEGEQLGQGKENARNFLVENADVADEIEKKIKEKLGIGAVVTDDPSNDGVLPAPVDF
As to the kind of experiment: Fluorescence Cell-Free Homogeneous Dose Retest to Identify Inhibitors of RecA-Intein Splicing Activity. [Related pubchem assays (depositor defined):AID2097, AID2223, AID489010, AID492950]. Type of experiment: functional.

A further experiment concerns the target Beta Lactamase (Pseudomonas aeruginosa, UniProt Q932Y6). As to the kind of experiment: beta-lactamase reporter inhibitor potency, dose response, artefact control for TLR9-MyD88 binding inhibitor project, BLA reporter cells, FRET fluorescence (AID 588341).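 Also: cell based assay in CHO-K1 cells stably expressing beta-lactamase.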 In kind it is cell-based.
Experiment [19] relates to HEK293. As to the kind of experiment: cells. Conditions: Homo sapiens.
Experiment [20] deals with HEK293. As to the kind of experiment: cells. To be noted: Homo sapiens. This is another data set of the same source.

Sequence of Beta Lactamase (Q932Y6 whole entry): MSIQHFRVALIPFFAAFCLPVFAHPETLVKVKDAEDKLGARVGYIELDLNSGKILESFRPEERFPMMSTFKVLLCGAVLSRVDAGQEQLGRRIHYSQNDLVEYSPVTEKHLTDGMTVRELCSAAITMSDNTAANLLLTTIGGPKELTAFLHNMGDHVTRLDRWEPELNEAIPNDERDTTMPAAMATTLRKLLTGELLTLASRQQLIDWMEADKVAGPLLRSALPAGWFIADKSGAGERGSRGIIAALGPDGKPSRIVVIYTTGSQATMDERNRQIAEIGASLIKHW
Sequence of Nonstructural protein 1 (Q194T2 whole entry): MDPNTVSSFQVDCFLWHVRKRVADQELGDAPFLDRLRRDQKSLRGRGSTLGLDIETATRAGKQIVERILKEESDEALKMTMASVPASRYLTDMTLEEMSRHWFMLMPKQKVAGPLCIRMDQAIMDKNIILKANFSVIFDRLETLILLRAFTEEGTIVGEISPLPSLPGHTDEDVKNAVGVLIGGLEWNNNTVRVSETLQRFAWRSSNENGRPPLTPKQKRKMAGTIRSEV
Sequence of Protein S100-A4 (P26447 whole entry): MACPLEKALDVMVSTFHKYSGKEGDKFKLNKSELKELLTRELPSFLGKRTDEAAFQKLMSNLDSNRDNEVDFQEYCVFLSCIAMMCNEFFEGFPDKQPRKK

On to `O=C(Nc1cccc2ncccc12)c1ccccc1Cl`, for which the IC50 in experiment [1] was > 100 µM (inactive); in experiment [2], 4 µM (active); in experiment [3] it was 9.25 µM (active); in experiment [4], 1.68 µM (active).
With `COc1cccc2c1C(=O)c1c(O)c3c(c(O)c1C2=O)CC(O)(C(C)=NNC(=O)c1ccc(Cl)c(Cl)c1)CC3OC1CC(N)C(O)C(C)O1` (centres undefined), the AC50 with HeLa was 3.38 µM (active); on ORF 73 it was 13.2 µM (active); on Protein S100-A4, 0.562 µM (active); on Paired box protein Pax-8 it was 4.72 µM (active). For the same compound, the results for the 50% inhibitory concentration (IC50) (on Nonstructural protein 1; in experiment [6]) were 3.67 µM (active) and 54.9 µM (active), respectively. The CC50 in experiment [5] was 9.6 µM (active).
As to `COc1ccc(C(C(=O)NC2CCCCC2)N(C(=O)CCl)c2ccc(OC)c(Cl)c2)cc1` (centres undefined), the AC50 in experiment [7] was 0.366 µM (active); in [8], 0.126 µM (active); in experiment [9], 0.122 µM (active); in [10] it was 0.536 µM (active).
Turning to `C=CC/N=c1\scc(-c2ccc3c(c2)NC(=O)CO3)n1/N=C(\C)c1ccccn1`, the values for the IC50 in experiment [11] and in experiment [13] were 10.1 µM (active) and above 32 µM, respectively. Besides, the EC50 on Beta-galactosidase [12] was > 31.5 µM (inactive).
Take `CC(NC(=O)/C(C#N)=C/c1ccc([N+](=O)[O-])o1)c1ccccc1` (centres undefined): the IC50 was 3.85 µM (active) in experiment [14]; 9.51 µM (active) in the experiment on Saccharomyces cerevisiae; 14.3 µM (active) in [16]; > 66.6 µM (inactive) on Beta-galactosidase [17]; 4.03 µM (active) in the experiment with CHO; 8.23 µM (active) on Beta Lactamase. The 50% effective concentration (EC50) was 6.1 µM (active) in experiment [15], 35 µM (active) at Protein RecA, > 59.6 µM (inactive) in the experiment on HEK293 [19] and > 59.6 µM (inactive) with HEK293 [20]. In experiment [18], the AC50 was > 120 µM (inactive).
